Data published in ChEMBL document CHEMBL1153283, “Synthesis and application of MeOSuc-Ala-Ala-Pro-Phe-CH2Cl as potent proteinase K inhibitor” (Bioorg Med Chem Lett, 2009).
The source made the active and inactive calls. The rule behind the calls is not given here.

Columns and labels:
[1] = Inhibition of proteinase K at 0.05 mM by RT-PCR
[2] = Inhibition of proteinase K at 0.25 mM by independent digestion assay in presence of BSA
[3] = Inhibition of proteinase K at 1 mM by RT-PCR
[4] = Inhibition of proteinase K at […] by RT-PCR
[5] = Inhibition of proteinase K at 0.125 mM by independent digestion assay in presence of BSA

Activity [1] | Activity [2] | Activity [3] | Activity [4] | Activity [5] | SMILES
Active | Active |  |  |  | COC(=O)CCC(=O)N[C@H](C)C(=O)N[C@@H](C)C(=O)N1CCC[C@H]1C(=O)N[C@@H](Cc1ccccc1)C(=O)CCl
 |  | Active | Active | Active | COC(=O)CCC(=O)N[C@H](C)C(=O)N[C@@H](C)C(=O)N1CCC[C@H]1C(=O)N[C@H](C(=O)CCl)C(C)C
